PubChem BioAssay (NCI)
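Five compound concentrations were applied to cells in 96-well plates for 48 hours; endpoints were derived by simple linear interpolation of the resulting dose-response curve. Definition used: TGI = concentration required for complete inhibition of growth.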

Legend:
Assay in all cases: DTP human tumour cell line panel, 48 h
[1] = test system: OVCAR-8 ovarian
[2] = test system: HCT-15 colon
[3] = test system: NCI/ADR-RES ovarian
[4] = test system: NCI-H522 lung
[5] = test system: UACC-62 melanoma
[6] = test system: SK-OV-3 ovarian
[7] = test system: SN12C renal
[8] = test system: HL-60(TB) leukemia
[9] = test system: OVCAR-4 ovarian
[10] = test system: MDA-MB-231 breast
[11] = test system: MCF7 breast
[12] = test system: HOP-92 NSCLC

Row | Structure (SMILES) | TGI [1] [µM] | TGI [2] [µM] | TGI [3] [µM] | TGI [4] [µM] | TGI [5] [µM] | TGI [6] [µM] | TGI [7] [µM] | TGI [8] [µM] | TGI [9] [µM] | TGI [10] [µM] | TGI [11] [µM] | TGI [12] [µM]
1 | CS(=O)(=O)c1nc(-c2cc3c(c(S(C)(=O)=O)n2)CCC3)cc2c1CCCCC2 | > 100 | > 100 | > 100 | 58.9 | 80 | 34.9 | > 100 | > 100 | > 100 | > 100 |  | 
2 | O=C1NC2ON=C(c3ccccc3)C2C2ON=C(c3ccccc3)N12 (stereo not drawn) | > 100 | > 100 | > 100 | > 100 | > 100 | > 100 |  |  |  | > 100 | > 100 | 
3 | C/C(CC(=O)Nc1ccc([N+](=O)[O-])cc1)=N\NC(N)=O | > 100 | > 100 |  | > 100 | > 100 | > 100 | > 100 | > 100 | > 100 |  |  | > 100
4 | Clc1ccc(NCc2nnc(CCCCCCCCc3nnc(CNc4ccc(Cl)cc4)o3)o2)cc1 | > 100 | > 100 | > 100 | > 100 | > 100 | > 100 | > 100 |  | > 100 | > 100 | > 100 | > 100
5 | COC(=O)C1(CCC(C)=O)CCCCCC1=O (stereo not drawn) |  | > 100 | > 100 | > 100 | > 100 | > 100 | > 100 |  | > 100 | > 100 | > 100 | > 100
6 | NC(=O)N/N=C(\CC1OC(=O)c2ccccc21)c1ccco1 (stereo not drawn) |  | > 100 |  | > 100 | > 100 | > 100 |  | > 100 | > 100 |  |  | > 100
7 | CC(=O)OC1COC(n2c(O)c(N=NC(N)=S)c3cc(Br)ccc32)C(OC(C)=O)C1OC(C)=O (stereo not drawn) | > 100 | > 100 |  | > 100 | > 100 | > 100 | > 100 | > 100 | > 100 |  |  | > 100
8 | NC(N)=N/N=C/c1c(-c2ccc(Cl)cc2)nc2sccn12 |  | 6.36 | 23.3 | 3.19 | 3.39 | 10.8 | 3.9 |  | 4.24 | 8.15 | 3.48 | 5.67
9 | CCOC(=O)NC(=O)c1cn(CCOC(=O)CCCCCCCCC(=O)OCCn2cc(C(=O)NC(=O)OCC)c(=O)[nH]c2=O)c(=O)[nH]c1=O | > 100 | > 100 |  |  | > 100 |  | > 100 | > 100 | > 100 |  |  | > 100
10 | O=c1[nH]c2cc(Cl)ccc2nc1/C(=N\O)C(O)c1cccc([N+](=O)[O-])c1 (stereo not drawn) | > 100 |  |  | > 100 | > 100 | > 100 | > 100 | > 100 | > 100 |  |  | > 100
11 | CCCCNc1nc(C#N)c(N)s1 | > 100 | > 100 |  | > 100 | > 100 | > 100 | > 100 | > 100 | > 100 |  |  | > 100
12 | CNS(=O)(=O)NN(C)S(=O)(=O)c1ccccc1 | > 100 | > 100 |  | > 100 | > 100 |  | > 100 | > 100 | > 100 |  |  | 
13 | CC(=O)OCC1=C(CCC#N)N2C(=O)C(NC(=O)Cc3cccs3)C2S(=O)C1 (stereo not drawn) | > 100 | > 100 |  | > 100 | > 100 | > 100 | > 100 | > 100 | > 100 |  |  | > 100
14 | NC1=C(NC(=O)Cc2ccc(F)cc2)C(=O)c2ccccc2C1=O | 98.5 | > 100 |  | > 70.1 | > 100 | 56.1 | > 100 | 98.6 | > 100 |  |  | 64.3
15 | Cc1cc2ccccc2n2c1nc1ccccc12 | > 100 | > 100 | > 100 |  | > 100 | > 100 | > 100 | > 100 |  |  | > 100 | > 100
16 | C[N+](C)(C)CC(=O)N/N=C/c1oc(-c2c(O)ccc3ccccc23)c(-c2c(O)ccc3ccccc23)c1[N+](=O)[O-] | 78.6 |  |  | 31.1 | 18.6 | 36.3 | 92.7 | 66.6 | 80.8 |  |  | 50.9
17 | CSc1nc(C#N)c(/N=C\N(C)C)n1C | > 100 | > 100 | > 100 | > 100 | > 100 | > 100 | > 100 | > 100 | > 100 | > 100 |  | > 100
18 | COc1ccc2c3c1O[C@]1(C)C34CCN(C)C(C2)C42C=C[C@@]1(OC)c1c(O)ccc(O)c12 | > 100 |  |  | > 100 |  | > 100 |  | > 100 |  |  |  | > 100
19 | O=C(CSc1nnc(-c2ccc(N=Cc3ccc(Cl)cc3)cc2)o1)Nc1ccccc1[N+](=O)[O-] | > 100 | > 100 |  | > 100 | > 100 | > 100 | > 100 | > 100 | > 100 |  |  | 
20 | O=C1c2cc(Cl)ccc2-n2cnnc2C2CSCN12 (stereo not drawn) | > 100 | > 100 | > 100 | > 100 | > 100 | > 100 | > 100 |  | > 100 | > 100 | > 100 | 
21 | O=C(Nc1ccc(Cl)cc1)NS(=O)(=O)c1coc2cc(F)ccc2c1=O | > 100 | > 100 | > 100 | > 100 | > 100 | > 100 | > 100 |  | > 100 | > 100 | > 100 | 
22 | Cn1cc2ccccc2c1-c1nc(F)nc(F)n1 |  | > 100 |  | > 100 |  | > 100 | > 100 | > 100 | > 100 |  |  | > 100
23 | C=Cc1ccc(C)[n+](C[Si](C)(C)O[Si](C)(C)C)c1 | > 100 | > 100 |  | > 100 | > 100 | > 100 | > 100 |  | > 100 |  |  | 
